The subject of this assay is Ba/F3 EGFR del19/T790M/C797S cells. As to the kind of experiment: Ba/F3 EGFR del19/T790M/C797S cell growth inhibition test (CellTiter-Glo, 72 hours).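 Further: compounds tested in tenfold steps from 10 µM down to 0.1 nM, with luminescence read on a microplate reader.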 The note with it: Ba/F3 cell line overexpressing EGFR del19/T790M/C797S, 72 hours, CellTiter-Glo; read-out: Ba/F3 EGFR del19/T790M/C797S cells, GI50. The class given is cell-based.

Protocol: Specifically, the cell line stored in a liquid nitrogen tank was taken out, rapidly dissolved at 37° C., and thereafter centrifuged to remove the cryopreservation medium. The recovered cell pellets were well mixed in a culture medium, put into a culture flask, and passaged under conditions of 37° C. and 5% carbon dioxide to stabilize the cells to the logarithmic growth phase. Thereafter, cells were taken from the flask, centrifuged to remove the culture medium, washed with Dulbecco's phosphate buffered saline (DPBS), and then centrifuged again to remove DPBS, and then diluted with a culture medium to have 1×10^5 cells/ml. The diluted cells were dispensed into a 96-well plate at 100 μl per well. […] The DMSO solution containing each compound was diluted with a culture medium to a concentration of 30 μM, and then tenfold serial dilution was used to prepare a solution diluted upto 0.3 nM (in order to reach a final DMSO concentration of 1% or less).
50 μl of a test solution of each compound was added each time to the 96-well plate in which the cells were dispensed, thus reaching a final concentration of 10 μM to 0.1 nM in 150 μl per well. The cells treated with the test solution were cultured under conditions of 37° C. and 5% carbon dioxide for 72 hours. After the 96-well plate in which the cells were cultured was acclimated to room temperature for 30 minutes, CellTiter-Glo® Luminescent Cell Assay Reagent (CTG, Promega) was dispensed at 50 μl per well. After stabilizing luminescence signals for 10 minutes, the luminescence intensity was measured with a microplate reader.
The GI50 value of each compound was calculated using nonlinear regression of GraphPad Prism; log[inhibitor] vs. normalized response analysis.

With `CN1CCN(c2ccc(Nc3nc(Nc4ccccc4N(C)S(C)(=O)=O)c4cc[nH]c4n3)cc2)CC1` [Example 1, N-methyl-N-(2-((2-((4-(4-methylpiperazin-1-yl)phenyl)amino)-7H-pyrrolo[2,3-d]pyrimidine-4-yl)amino)phenyl)methanesulfonamide], the GI50 came to 3.1 nM. Regarding `Cc1cc(N2CCN(C)CC2)ccc1Nc1nc(Nc2ccccc2N(C)S(C)(=O)=O)c2cc[nH]c2n1` [Example 2, N-methyl-N-(2-((2-((2-methyl-4-(4-methylpiperazin-1-yl)phenyl)amino)-7H-pyrrolo[2,3-d]pyrimidine-4-yl)amino)phenyl)methanesulfonamide], the GI50 came out at 522 nM.

Turning to `CN1CCN(c2ccc(Nc3nc(Nc4ccccc4N(C)S(C)(=O)=O)c4cc[nH]c4n3)c(F)c2)CC1` [Example 3, N-(2-((2-((2-fluoro-4-(4-methylpiperazin-1-yl)phenyl)amino)-7H-pyrrolo[2,3-d]pyrimidine-4-yl)amino)phenyl)-N-methylmethanesulfonamide], the GI50 came to 157 nM. As to `CN1CCN(c2ccc(Nc3nc(Nc4ccccc4N(C)S(C)(=O)=O)c4cc[nH]c4n3)cc2O)CC1` [Example 4, N-(2-((2-((3-hydroxy-4-(4-methylpiperazin-1-yl)phenyl)amino)-7H-pyrrolo[2,3-d]pyrimidine-4-yl)amino)phenyl)-N-methylmethanesulfonamide], the GI50 stood at 453 nM.

`Cc1cc(Nc2nc(Nc3ccccc3N(C)S(C)(=O)=O)c3cc[nH]c3n2)ccc1N1CCN(C)CC1` [Example 5, N-methyl-N-(2-((2-((3-methyl-4-(4-methylpiperazin-1-yl)phenyl)amino)-7H-pyrrolo[2,3-d]pyrimidine-4-yl)amino)phenyl)methanesulfonamide]: the GI50 was 31 nM. Take `CN1CCN(c2ccc(Nc3nc(Nc4ccccc4N(C)S(C)(=O)=O)c4cc[nH]c4n3)cc2Cl)CC1` [Example 6, N-(2-((2-((3-chloro-4-(4-methylpiperazin-1-yl)phenyl)amino)-7H-pyrrolo[2,3-d]pyrimidine-4-yl)amino)phenyl)-N-methylmethanesulfonamide]: the GI50 is 54 nM.

For the compound `CN1CCN(c2ccc(Nc3nc(Nc4ccccc4N(C)S(C)(=O)=O)c4cc[nH]c4n3)cc2F)CC1` [Example 7, N-(2-((2-((3-fluoro-4-(4-methylpiperazin-1-yl)phenyl)amino)-7H-pyrrolo[2,3-d]pyrimidine-4-yl)amino)phenyl)-N-methylmethanesulfonamide], the GI50 was determined as 19 nM. The value for `CN(c1ccccc1Nc1nc(Nc2ccc(N3CCOCC3)c(F)c2)nc2[nH]ccc12)S(C)(=O)=O` [Example 12, N-(2-((2-((3-fluoro-4-morpholinophenyl)amino)-7H-pyrrolo[2,3-d]pyrimidine-4-yl)amino)phenyl)-N-methylmethanesulfonamide] was 4.2 nM; that for `CN(c1ccccc1Nc1nc(Nc2ccc(N3CCC(N4CCOCC4)CC3)c(F)c2)nc2[nH]ccc12)S(C)(=O)=O` [Example 18, N-(2-((2-((3-fluoro-4-(4-morpholinopiperidin-1-yl)phenyl)amino)-7H-pyrrolo[2,3-d]pyrimidine-4-yl)amino)phenyl)-N-methylmethanesulfonamide] was 73 nM. As to `CN(c1ccccc1Nc1nc(Nc2ccc(N3CCN(C4COC4)CC3)c(F)c2)nc2[nH]ccc12)S(C)(=O)=O` [Example 19], the GI50 came to 112 nM. For `CN1CCC(c2ccc(Nc3nc(Nc4ccccc4N(C)S(C)(=O)=O)c4cc[nH]c4n3)cc2F)CC1` [Example 20, N-(2-((2-((3-fluoro-4-(1-methylpiperidin-4-yl)phenyl)amino)-7H-pyrrolo[2,3-d]pyrimidine-4-yl)amino)phenyl)-N-methylmethanesulfonamide], the GI50 was 37 nM.

Turning to `CN(C)C1CCN(c2ccc(Nc3nc(Nc4ccccc4N(C)S(C)(=O)=O)c4cc[nH]c4n3)cc2F)CC1` [Example 21, N-(2-((2-((4-(4-(dimethylamino)piperidin-1-yl)-3-fluorophenyl)amino)-7H-pyrrolo[2,3-d]pyrimidine-4-yl)amino)phenyl)-N-methylmethanesulfonamide], the GI50 is 17 nM. The value for `CN(c1ccccc1Nc1nc(Nc2ccc(N3CCCCC3)c(F)c2)nc2[nH]ccc12)S(C)(=O)=O` [Example 22, N-(2-((2-((4-(piperidin-1-yl)-3-fluorophenyl)amino)-7H-pyrrolo[2,3-d]pyrimidine-4-yl)amino)phenyl)-N-methylmethanesulfonamide] was 371 nM; that for `CN(c1ccccc1Nc1nc(Nc2ccc(N3CCNCC3)c(F)c2)nc2[nH]ccc12)S(C)(=O)=O` [Example 23, N-(2-((2-((3-fluoro-4-(piperazin-1-yl)phenyl)amino)-7H-pyrrolo[2,3-d]pyrimidine-4-yl)amino)phenyl)-N-methylmethanesulfonamide] was 76 nM. To `CN1CCC(Nc2ccc(Nc3nc(Nc4ccccc4N(C)S(C)(=O)=O)c4cc[nH]c4n3)cc2F)CC1` [Example 24, N-(2-((2-((3-fluoro-4-((1-methylpiperidin-4-yl)amino)phenyl)amino)-7H-pyrrolo[2,3-d]pyrimidine-4-yl)amino)phenyl)-N-methylmethanesulfonamide] belongs 47 nM; to `CN1CCN(c2c(F)cc(Nc3nc(Nc4ccccc4N(C)S(C)(=O)=O)c4cc[nH]c4n3)cc2F)CC1` [Example 25, N-(2-((2-((3,5-difluoro-4-(4-methylpiperazin-1-yl)phenyl)amino)-7H-pyrrolo[2,3-d]pyrimidine-4-yl)amino)phenyl)-N-methylmethanesulfonamide], 22 nM; to `CN1CCN(c2ccc(Nc3nc(Nc4ccccc4N(C)S(C)(=O)=O)c4cc[nH]c4n3)c(F)c2F)CC1` [Example 27, N-(2-((2-((2,3-difluoro-4-(4-methylpiperazin-1-yl)phenyl)amino)-7H-pyrrolo[2,3-d]pyrimidine-4-yl)amino)phenyl)-N-methylmethanesulfonamide], 6 nM. As for `CN(c1ccccc1Nc1nc(Nc2ccc(N3CCN(CCO)CC3)c(F)c2F)nc2[nH]ccc12)S(C)(=O)=O` [Example 28, N-(2-((2-((2,3-difluoro-4-(4-(2-hydroxyethyl)piperazin-1-yl)phenyl)amino)-7H-pyrrolo[2,3-d]pyrimidine-4-yl)amino)phenyl)-N-methylmethanesulfonamide], the GI50 came out at 7 nM. In the case of `CN1CCN(c2ccc(Nc3nc(Nc4ccccc4N(C)S(C)(=O)=O)c4cc[nH]c4n3)nc2)CC1` [Example 29, N-methyl-N-(2-((2-((5-(4-methylpiperazin-1-yl)pyridin-2-yl)amino)-7H-pyrrolo[2,3-d]pyrimidine-4-yl)amino)phenyl)methanesulfonamide], the GI50 came out at 626 nM.

With `CN1CCN(c2ccc(Nc3nc(Nc4ccccc4N(C)S(C)(=O)=O)c4cc[nH]c4n3)cn2)CC1` [Example 30, N-methyl-N-(2-((2-((6-(4-methylpiperazin-1-yl)pyridin-3-yl)amino)-7H-pyrrolo[2,3-d]pyrimidine-4-yl)amino)phenyl)methanesulfonamide], the GI50 was 9.4 nM.

Consider `CN1CCC2(CC1)CCN(c1ccc(Nc3nc(Nc4ccccc4N(C)S(C)(=O)=O)c4cc[nH]c4n3)cc1F)CC2` [Example 31, N-(2-((2-((3-fluoro-4-(9-methyl-3,9-diazaspiro[5.5]undecan-3-yl)phenyl)amino)-7H-pyrrolo[2,3-d]pyrimidine-4-yl)amino)phenyl)-N-methylmethanesulfonamide], for which the GI50 is 10 nM. `CCN1CCC2(CC1)CCN(c1ccc(Nc3nc(Nc4ccccc4N(C)S(C)(=O)=O)c4cc[nH]c4n3)cc1F)CC2` [Example 32, N-(2-((2-((4-(9-ethyl-3,9-diazaspiro[5.5]undecan-3-yl)-3-fluorophenyl)amino)-7H-pyrrolo[2,3-d]pyrimidine-4-yl)amino)phenyl)-N-methanesulfonamide]: the GI50 is 11 nM. As for `CN1CCC2(CCN(c3ccc(Nc4nc(Nc5ccccc5N(C)S(C)(=O)=O)c5cc[nH]c5n4)cc3F)CC2)C1` [Example 33, N-(2-((2-((3-fluoro-4-(2-methyl-2,8-diazaspiro[4.5]decan-8-yl)phenyl)amino)-7H-pyrrolo[2,3-d]pyrimidine-4-yl)amino)phenyl)-N-methylmethanesulfonamide], the GI50 worked out at 31 nM. In the case of `CN1CC2(CCN(c3ccc(Nc4nc(Nc5ccccc5N(C)S(C)(=O)=O)c5cc[nH]c5n4)cc3F)CC2)C1` [Example 34, N-(2-((2-((3-fluoro-4-(2-methyl-2,7-diazaspiro[3.5]nonan-7-yl)phenyl)amino)-7H-pyrrolo[2,3-d]pyrimidine-4-yl)amino)phenyl)-N-methylmethanesulfonamide], the GI50 stood at 6 nM. `CN1CCC2(CC1)CCN(c1ccc(Nc3nc(Nc4ccccc4N(C)S(C)(=O)=O)c4cc[nH]c4n3)cc1F)C2` [Example 35, N-(2-((2-((3-fluoro-4-(8-methyl-2,8-diazaspiro[4.5]decan-2-yl)phenyl)amino)-7H-pyrrolo[2,3-d]pyrimidine-4-yl)amino)phenyl)-N-methylmethanesulfonamide]: the GI50 turned out to be 185 nM. Turning to `CN1CCC2(CC1)CN(c1ccc(Nc3nc(Nc4ccccc4N(C)S(C)(=O)=O)c4cc[nH]c4n3)cc1F)C2` [Example 37, N-(2-((2-((3-fluoro-4-(7-methyl-2,7-diazaspiro[3.5]nonan-2-yl)phenyl)amino)-7H-pyrrolo[2,3-d]pyrimidine-4-yl)amino)phenyl)-N-methylmethanesulfonamide], the GI50 amounted to 95 nM. Regarding `CN1CCC2(C1)CN(c1ccc(Nc3nc(Nc4ccccc4N(C)S(C)(=O)=O)c4cc[nH]c4n3)cc1F)C2` [Example 38, N-(2-((2-((3-fluoro-4-(6-methyl-2,6-diazaspiro[3.4]octan-2-yl)phenyl)amino)-7H-pyrrolo[2,3-d]pyrimidine-4-yl)amino)phenyl)-N-methylmethanesulfonamide], the GI50 was determined as 25 nM. Take `CN(c1ccccc1Nc1nc(Nc2ccc(N3CCC4(CCOCC4)CC3)c(F)c2)nc2[nH]ccc12)S(C)(=O)=O` [Example 39, N-(2-((2-((3-fluoro-4-(3-oxa-9-diazaspiro[5.5]undecan-9-yl)phenyl)amino)-7H-pyrrolo[2,3-d]pyrimidine-4-yl)amino)phenyl)-N-methylmethanesulfonamide]: the GI50 turned out to be 67 nM.

The record behind these values is patent US12319695B2, “Sulfonamide derivative with fused pyrimidine skeleton, having epidermal growth factor receptor mutation inhibitory effect” (HANMI PHARM. CO., LTD., priority 2018, dated 2025).
